The source of these data is US20160250221A1, “INHIBITORS OF FAPP2 AND USES THEREOF” (FONDAZIONE TELETHON, priority 2013, published 2016).

“Also recorded” adds a separate entry of the source.

In one assay the test system is HeLa cells. Put plainly: GSL synthesis by 3H-sphingosine metabolic labelling. The assay is classed as cell-based.
Assay [1] has as its system 3XHA-Gb3S and 3XHA-GM3S distribution. Nature of the assay: Immunofluorescence localization of HA-GM3S and HA-Gb3S. As to conditions: BFA 5 μg/ml 30 min. The assay is classed as cell-based. How it is done: All immunofluorescence experiments were performed as described previously^1,14. Images are confocal optical slices obtained using an LSM 710 (Zeiss) confocal microscope. Colocalization analysis was performed as described in^14 or by using an object-based colocalization method included in the JACoP v2.0 application for ImageJ^16. In brief, individual mini-stacks in nocodazole-treated cells were considered as objects, whose mass-center position was calculated after segmentation, the perfect coincidence of mass-center positions for two distinct labelling (i.e. Gb3S/TGN46, or GM3S/TGN46) in a single ministack was considered as a positive colocalization event.

A further assay concerns the target T1, FAPP2-HIS-SUMO-C-212 (Homo sapiens, UniProt Q96JA3).
T1 construct: the recombinant FAPP2 protein is FAPP2-GLTP-C212 or FAPP2 Full-Length (FL)
T1 sequence (Q96JA3 310-519 limits assumed): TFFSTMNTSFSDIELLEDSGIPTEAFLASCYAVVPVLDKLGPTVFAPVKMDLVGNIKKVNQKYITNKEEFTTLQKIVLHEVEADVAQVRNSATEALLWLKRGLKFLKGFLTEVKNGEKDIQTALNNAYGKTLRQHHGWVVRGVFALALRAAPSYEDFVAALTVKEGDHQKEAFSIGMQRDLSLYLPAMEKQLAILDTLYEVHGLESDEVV
Nature of the assay: FRET GlcCer transfer assay with FAPP2-C212 (384-well). As to conditions: for inhibition of FAPP2 transfer activity: 50 uM compound. The assay is classed as biochemical. How it is done: (§1) FAPP2 transfer activity has been evaluated using Fluorescence Resonance Energy Transfer. The FRET assay involves mixing of acceptor vesicles (formed by sonication of 1,2-dioleoyl-sn-glycero-3-phosphocholine (DOPC) suspended in buffer) with donor vesicles containing TopFLUOR-labeled GlcCer (1 mole %) and Di1C18 used as quencher (3 mole %), and recombinant FAPP2 protein (0.5 uM). Recovery of emission intensity at 520 nm (excitation at 485 nm) occurs during FAPP2-mediated transfer of GlcosylCeramide from quenched donor vesicles to unquenched acceptor vesicles. The assay has been performed using FAPP2-GLTP-C212 or FAPP2 Full-Length (FL). In order to conduct the high throughput inhibitor screen, the transfer activity assay was adapted to a microplate format (384 well plate) and read using Synergy Neo HTS Multi-Mode Microplate Reader. First, mixture containing 30 ul of acceptor small unilamellar vesicles, FAPP2 transport protein, and drug in buffer was added to each well in triplicate and read for 1 min to calculate the fluorescence baseline. Then 30 ul donor vesicles were added to each well and read for 15 or 30 mins. Since the increase in fluorescence emission occurs exclusively in presence of FAPP2 transport, the inhibition rate of each compound is evaluated by its ability to decrease the fluorescence emission.

For another assay, the target named is T2, FAPP2-FL-SUMO (Homo sapiens, UniProt Q96JA3).
T2 construct: FAPP2-FL-SUMO (recombinant FAPP2 full length protein tagged with small ubiquitin-related modifier); made in house; host or cells: Rosetta cells (E. coli, own knowledge)
T2 sequence (Q96JA3 1-519): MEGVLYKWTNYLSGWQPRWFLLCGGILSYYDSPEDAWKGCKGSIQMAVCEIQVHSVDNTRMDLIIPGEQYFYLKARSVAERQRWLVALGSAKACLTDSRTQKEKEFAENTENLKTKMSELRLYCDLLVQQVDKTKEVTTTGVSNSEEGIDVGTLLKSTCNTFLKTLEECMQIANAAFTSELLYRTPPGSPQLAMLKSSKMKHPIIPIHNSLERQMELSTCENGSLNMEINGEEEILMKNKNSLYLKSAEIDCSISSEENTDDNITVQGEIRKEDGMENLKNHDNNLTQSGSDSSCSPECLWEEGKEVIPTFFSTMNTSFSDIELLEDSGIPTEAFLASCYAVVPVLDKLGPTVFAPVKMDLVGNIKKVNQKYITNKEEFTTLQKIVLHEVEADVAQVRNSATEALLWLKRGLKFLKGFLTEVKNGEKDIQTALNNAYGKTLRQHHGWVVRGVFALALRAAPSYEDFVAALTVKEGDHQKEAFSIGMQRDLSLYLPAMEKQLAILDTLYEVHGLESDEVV
Put plainly: FRET-based GlcCer transfer assay, Example 8 (96-well, full-length FAPP2). The assay is classed as biochemical. As to conditions: for competition with the GlcCer transfer activity of FAPP2: final concentration 10 uM. As to the method: Specifically, acceptor vesicles (formed by sonication of 1,2-dioleoyl-sn-glycero-3-phosphocholine (DOPC) were suspended in 10 mM NaH2PO4 buffer, pH 7.4, containing 1 mM dithiothreitol and 1 mM EDTA) and were incubated with donor vesicles containing BODIPY-labeled GlcCer (1 or 2 mole %, as indicated) and Di1C18 used as quencher (3 mole %), and recombinant FAPP2 protein (at the indicated concentrations).
Recovery of emission intensity at 520 nm (excitation at 485 nm) occurred during protein-mediated transfer of GlcCer from quenched donor vesicles to unquenched acceptor vesicles.
Phlorizin and Dapagliflozin were resuspended in DMSO (100 mM). The assay was conducted at four different concentrations (1 mM, 500 uM, 200 uM, 100 uM). Both FAPP2 WT and FAPP2 W407A were used to highlight possible non-specific effects of the drugs on fluorescence emission. First, mixture that contained FAPP2, acceptor small unilamellar vesicles and drug in buffer were added to 96 well plates, the plate was immediately loaded into the plate reader. Following 2 sec of shaking, the fluorescence emission @520 nm (excitation 485 nm) was measured at 10 sec intervals for 5 mins to calculate the baseline fluorescence. Then, donor vesicles were added to each well and read again for the indicated time. The experiments were repeated at least 3 times and each measurement performed in triplicate.
To screen and identify small molecules for drug development for Fabry disease treatment, a miniaturized FRET-based in vitro screening assay was developed to screen for small molecules that can inhibit FAPP2. The miniaturized FRET-based in vitro screening assay tests the ability of FAPP2 to transfer GlcCer from donor to acceptor and identifies small molecules able to inhibit the transfer activity of FAPP2. The flFAPP2 was produced as Sumo-fusion protein and assayed in Rosetta cells.

In the next assay the target is T3, FAPP2-FL-SUMO-HIS (Homo sapiens, UniProt Q96JA3).
T3 construct: The assay has been performed using FAPP2-GLTP-C212 or FAPP2 Full-Length (FL); made in house; host or cells: Rosetta cells (E. coli, own knowledge)
T3 sequence (Q96JA3 1-519): T2 sequence (Q96JA3 1-519)
Nature of the assay: FRET GlcCer transfer assay with full-length FAPP2 (Example 9). The assay is classed as biochemical. As to conditions: 50 uM compound; FAPP2-FL-SUMO-HIS at 0.5 uM; measured for 15 mins. How it is done: as §1

For assay [2], the system named is ts045 VSV-G (VSVG) transport. The assay is classed as cell-based. As to conditions: dicoumarol 200 μM.
Setting [3] is: FAPP2-C212 at 0.5 uM, measured for 30 mins.

In the case of `C[C@H]1CCC/C=C/[C@@H]2C[C@H](O)C[C@H]2[C@H](O)/C=C/C(=O)O1` [BFA, Brefeldin A], the Gb3 synthesis result with HeLa cells (BFA 5 μg/mL) is listed as “decreased”. Also, the GM3 synthesis entry is “but not that of GM3” in the assay on HeLa cells (BFA 5 μg/mL, parental cells) and “became sensitive” with HeLa cells (HeLa cells overexpressing GM3S (HeLa-GM3S), BFA 5 μg/mL). In assay [1], the “redistribution of GM3S to the ER” value is reported as “redistributed”. As to `CCc1oc2ccccc2c1C(=O)c1cc(Br)c(O)c(Br)c1` [Benzbromarone], the “ranking as FAPP2 inhibitor in vitro” value at FAPP2-HIS-SUMO-C-212 is listed as “one of the most potent FAPP2 inhibitors”. Further, the “inhibition of FAPP2 transfer activity” value on FAPP2-HIS-SUMO-C-212 (setting [3]) is reported as 80%.

For the compound `CCCCCCCCCCCCC/C=C/[C@@H](O)[C@H](COC1OC(CO)C(O)C(O)C1O)NC(=O)CCCCCCC` (some centres unmarked) [C8-GlcCer], the “competition with the GlcCer transfer activity of FAPP2” value is “able to inhibit transfer by competition” at FAPP2-FL-SUMO and “competes” at FAPP2-FL-SUMO (listed as C8-G1Cer). With `CC(C)=CCC/C(C)=C/CC/C(C)=C/Cc1c(O)cc(C)c(C(=O)O)c1O` [Grifolic Acid], the “ranking as FAPP2 inhibitor in vitro” value on FAPP2-HIS-SUMO-C-212 is listed as “most active FAPP2 inhibitor in vitro”. Further, the “effect on FAPP2-mediated GlcCer transfer” value at FAPP2-HIS-SUMO-C-212 (50 uM, FAPP2-C212 at 0.5 uM, measured for 30 mins) is reported as “significantly reduced”; at FAPP2-HIS-SUMO-C-212 (100 uM, FAPP2-C212 at 0.5 uM, measured for 30 mins) it was “significantly reduced”. For the compound `O=C(O)Cn1nnc(-c2cc(N3CCC(Oc4cc(F)ccc4Br)CC3)no2)n1` [MK-8245], on FAPP2-FL-SUMO-HIS, the “inhibition of FAPP2 transfer activity” value worked out at 40%. As for `O=C(CCc1ccc(O)cc1)c1c(O)cc(O)cc1O[C@@H]1O[C@H](CO)[C@@H](O)[C@H](O)[C@H]1O` [Phlorizin], the “inhibition of GlcCer transfer activity of FAPP2” value against FAPP2-FL-SUMO (four drug concentrations (100 uM, 200 uM, 500 uM, 1 mM)) is “can inhibit; also recorded: inhibits the GlcCer transfer”. Take `O=C(Nc1cccc2c(=O)cc(-c3nn[nH]n3)oc12)c1ccc(OCCCCc2ccccc2)cc1` [Pranlukast]: at FAPP2-HIS-SUMO-C-212 (setting [3]), the “inhibition of FAPP2 transfer activity” value was determined as 90%. In the case of `CCOc1cc(CC(=O)N[C@@H](CC(C)C)c2ccccc2N2CCCCC2)ccc1C(=O)O` [Repaglinide], the “inhibition of FAPP2 transfer activity” value at FAPP2-FL-SUMO-HIS is listed as 50%. Regarding `Cc1cc(OCCCS(C)(=O)=O)cc(C)c1-c1cccc(COc2ccc3c(c2)OCC3CC(=O)O)c1` (centres unmarked) [TAK-875], at FAPP2-HIS-SUMO-C-212 (100 uM, FAPP2 at 0.5 uM, measured for 15 mins), the “effect on FAPP2-mediated GlcCer transfer” value is “significantly reduced”. Turning to `CCSc1ccc2c(c1)N(CCCN1CCN(C)CC1)c1ccccc1S2` [Thiethylperazine], the “inhibition of FAPP2 transfer activity” value on FAPP2-HIS-SUMO-C-212 (setting [3]) was determined as 60%. The same measure, in the same setting: then `COc1cc(C(=O)NS(=O)(=O)c2ccccc2C)ccc1Cc1cn(C)c2ccc(NC(=O)OC3CCCC3)cc12` [Zafirlukast], with 90%.

Regarding `O=c1oc2ccccc2c(O)c1Cc1c(O)c2ccccc2oc1=O` [dicoumarol], the GM3 synthesis result in the assay on HeLa cells (dicoumarol 200 μM, 3 hours 3H-sphingosine pulse) was “strongly inhibited”. For the same compound, the “intra-Golgi progression of VSVG” value in assay [2] is “suppressed”.
